{"source": "patent US12414932B2", "about": "“Arsinothricin and methods of treating infections using arsinothricin” (priority 2018, dated 2025)", "test_system": "Gram-negative and Gram-positive bacteria", "experiment": "Bacterial resistance (growth inhibition) assay, environmental isolates", "assay_type": "cell-based", "details": "M9 medium, 24 h; except B. gladioli GSRB05 and P. putida KT2440; PT as L-PT", "data": [{"compound": "CP(=O)(O)CCC(N)C(=O)O", "note": "(racemic) [PT, phosphinothricin, reference compound]", "values": [{"measurement": "concentration inhibiting each species to the same degree", "value": 400, "unit": "µM"}]}]}
